# Experimental data published in patent publication US20070128731A1, “Methods for preparing crystalline rapamycin and for measuring crystallinity of rapamycin compounds using differential scanning calorimetry” (Wyeth, priority 2005, published 2007).
# Experiment: Storage stability of crystalline rapamycin followed by DSC
# Assay type: physicochemical
# Method: In one example, the crystallinity is maintained over a period of about 2 months. In another example, the crystallinity is maintained over a period of about 4 months. In a further example, the crystallinity is maintained up to about 60% relative humidity.
# In this example, samples containing rapamycin (Table 3) were analyzed by DSC and optical microscopy. The morphology and approximate particle size were determined using optical microscopy. A standard DSC sample ramp rate of 10° C./min and a hermetically sealed aluminum pan were utilized.
# Sample 2 contained crystalline rapamycin and about 2 to about 3% of oxidative/hydrolysis degradation impurities and was prepared using the process of Example 3. A portion of the batch was maintained at 25° C. and 60% relative humidity for 2 months.
# Sample 3 contains crystalline rapamycin and about 2 to about 3% of oxidative/hydrolysis degradation impurities and was prepared using the process of example 3. A portion of the batch was subjected to 25° C. and 60% relative humidity for 4 months.
structure (smiles),measurement,setting,value
CO[C@H]1C[C@@H]2CC[C@@H](C)[C@@](O)(O2)C(=O)C(=O)N2CCCC[C@H]2C(=O)O[C@H]([C@H](C)C[C@@H]2CC[C@@H](O)[C@H](OC)C2)CC(=O)[C@H](C)/C=C(\C)[C@@H](O)[C@@H](OC)C(=O)[C@H](C)C[C@H](C)/C=C/C=C/C=C/1C [rapamycin],effect of low levels of impurities on DSC melting temperature over time,"about 2 to about 3% oxidative/hydrolysis degradation impurities, 25° C. and 60% relative humidity, 2 and 4 months",do not affect
same,crystallinity on storage,period up to 4 months at up to about 60% relative humidity,substantially maintained
same,change in the DSC melting endotherm on storage,stored for up to 4 months at up to about 60% relative humidity,minimal change
